# Data published in patent US8067424B2, “Selective inhibitors for cyclin-dependent kinases” (Emory University, priority 2007, dated 2011).
# Like-named read-outs stand apart in the source and are kept apart here.
# How the values were obtained:
# Format in all cases: biochemical
# RSK1 = RSK1 (Homo sapiens, UniProt Q15418); assay: Kinase screen: MAPKAP-K1a assay
# Procedure: (§1) Generally, the same procedure was used for all assays. Since the total assay volume was 25.5 microliters, 0.5 microliters of inhibitors at 51× assay concentration were added to the plates before any other addition.
# (§2) The basic procedure was to add 0.5 microliters inhibitor/control in DMSO to plate. Fifteen microliters of enzyme/substrate/buffer mix were added and incubated for 5 min. Ten microliters MgATP at the relevant concentration were added and incubated for 30 min. The assay was stopped by adding 5 microliters of 3% orthophosphoric acid. The assay was transferred to a p81 filter plate and read in a scintillation counter of 30 sec/well. Note that this assay procedure was not followed for MKK1, which instead involved a two-step assay, and PKC alpha, which required the addition of lipid vesicles.
# MAPKAP-K1a assay: MAPKAP-K1a (5-20 mU diluted in 20 mM MOPS pH 7.5, 1 mM EDTA, 0.01% Brij35, 5% glycerol, 0.1% b-mercaptoethanol, 1 mg/ml BSA) was assayed against […] (SEQ ID NO: 3) in a final volume of 25.5 μl containing 50 mM Na-b-glycerophosphate pH 7.5, 0.5 mM EDTA, 30 μM substrate peptide, 10 mM magnesium acetate and 0.05 mM [33P-g-ATP] (50-1000 cpm/pmole) and incubated for 40 min at room temperature. Assays were stopped by addition of 5 μl of 0.5 M (3%) orthophosphoric acid and then harvested onto P81 Unifilter plates with a wash buffer of 50 mM orthophosphoric acid.
# MNK1 = MNK1 (Homo sapiens, UniProt Q9BUB5); assay: Kinase screen: MNK1 assay
# Chain of MNK1 (Q9BUB5 whole entry, species assumed): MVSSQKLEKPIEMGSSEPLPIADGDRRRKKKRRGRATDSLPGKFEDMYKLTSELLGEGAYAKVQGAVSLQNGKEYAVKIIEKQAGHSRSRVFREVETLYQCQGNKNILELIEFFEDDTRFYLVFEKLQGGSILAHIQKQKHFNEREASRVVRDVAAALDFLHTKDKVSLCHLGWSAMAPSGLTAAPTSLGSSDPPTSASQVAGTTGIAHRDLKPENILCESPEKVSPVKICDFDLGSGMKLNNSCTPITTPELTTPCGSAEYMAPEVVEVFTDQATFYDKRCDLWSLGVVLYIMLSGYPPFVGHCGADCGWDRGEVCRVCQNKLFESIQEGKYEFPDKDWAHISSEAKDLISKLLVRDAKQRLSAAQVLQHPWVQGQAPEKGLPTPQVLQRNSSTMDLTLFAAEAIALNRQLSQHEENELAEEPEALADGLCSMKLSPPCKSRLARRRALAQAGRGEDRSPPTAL
# Procedure: as §1, §2
# MNK1 assay: 5-20 mU of MNK1 (diluted in 50 mM Tris (pH 7.5), 0.1 mM EGTA, 1 mg/ml BSA, 0.1%, b-Mercaptoethanol) was assayed against substrate peptide (eIF4E) in a final volume of 25.5 μl containing 50 mM Tris (pH 7.5), 0.1 mM EGTA, 0.1%, b-Mercaptoethanol, 0.5 mg/ml substrate peptide, 10 mM magnesium acetate and 0.05 mM [33P-g-ATP](500-1000 cpm/pmole) and incubated for 30 mins at room temperature. Assays were stopped by addition of 5 μl of 0.5M (3%) orthophosphoric acid. Assays were harvested onto P81 Unifilter plates using a wash buffer of 50 mM orthophosphoric acid.
# CK1 = CK1 (Homo sapiens, UniProt P48730); assay: Kinase screen: CK1 assay
# Chain of CK1 (P48730 whole entry): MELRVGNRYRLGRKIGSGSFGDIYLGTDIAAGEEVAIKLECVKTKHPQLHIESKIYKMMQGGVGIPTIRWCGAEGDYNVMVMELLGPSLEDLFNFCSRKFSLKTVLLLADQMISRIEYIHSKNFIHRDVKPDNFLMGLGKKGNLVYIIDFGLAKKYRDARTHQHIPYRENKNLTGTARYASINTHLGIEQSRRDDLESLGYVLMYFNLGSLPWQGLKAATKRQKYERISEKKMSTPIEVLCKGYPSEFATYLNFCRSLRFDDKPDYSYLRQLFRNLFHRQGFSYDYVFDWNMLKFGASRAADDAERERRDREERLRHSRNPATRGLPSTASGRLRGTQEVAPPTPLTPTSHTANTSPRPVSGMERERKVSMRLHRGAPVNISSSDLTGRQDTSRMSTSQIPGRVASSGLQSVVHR
# Procedure: as §2, with “Generally, the same procedure was used for all assays. […] The basic” for “The basic”, “30 min. […] The assay” for “30 min. The assay was stopped by adding 5 microliters of 3% orthophosphoric acid. The assay”, “lipid vesicles. CK1 assay: […]” for “lipid vesicles.”
# SGK1 = molecular target: T1, SGK1 (Homo sapiens, UniProt O00141); assay: Kinase screen: SGK assay
# T1 sequence (O00141 1-431): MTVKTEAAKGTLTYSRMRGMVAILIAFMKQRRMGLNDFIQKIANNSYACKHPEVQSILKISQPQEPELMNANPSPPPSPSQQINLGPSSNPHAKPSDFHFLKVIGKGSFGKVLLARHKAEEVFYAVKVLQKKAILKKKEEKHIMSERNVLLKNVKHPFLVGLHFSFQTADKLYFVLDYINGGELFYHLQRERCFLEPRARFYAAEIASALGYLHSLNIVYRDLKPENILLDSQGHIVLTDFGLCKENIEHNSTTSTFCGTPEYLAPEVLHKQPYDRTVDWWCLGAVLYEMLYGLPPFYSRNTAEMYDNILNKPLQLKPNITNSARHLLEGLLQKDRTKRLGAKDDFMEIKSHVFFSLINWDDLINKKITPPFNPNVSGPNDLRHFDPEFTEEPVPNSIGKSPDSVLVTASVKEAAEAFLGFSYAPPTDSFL
# Procedure: as §1, §2
# SGK assay: SGK (5-20 mU diluted in 20 mM MOPS pH 7.5, 1 mM EDTA, 0.01% Brij35, 5% glycerol, 0.1% b-mercaptoethanol, 1 mg/ml BSA) was assayed against a modified Crosstide peptide […] (SEQ ID NO: 4) in a final volume of 25.5 μl containing 8 mM MOPS pH 7.0, 0.2 mM EDTA, 30 μM substrate peptide, 10 mM magnesium acetate and 0.02 mM [33P-g-ATP] (50-1000 cpm/pmole) and incubated for 30 min at room temperature. Assays were stopped by addition of 5 μl of 0.5 M (3%) orthophosphoric acid and then harvested onto P81 Unifilter plates with a wash buffer of 50 mM orthophosphoric acid.
# FGF-R1 = FGF-R1 (Homo sapiens, UniProt P11362); assay: Kinase screen: FGF-R1 assay; conditions: 10 micromolar compound; for remaining activity at 10 µM: read-out: mean activity remaining (as a percentage of the original activity), FGF-R1
# Chain of FGF-R1 (P11362 22-822, species assumed): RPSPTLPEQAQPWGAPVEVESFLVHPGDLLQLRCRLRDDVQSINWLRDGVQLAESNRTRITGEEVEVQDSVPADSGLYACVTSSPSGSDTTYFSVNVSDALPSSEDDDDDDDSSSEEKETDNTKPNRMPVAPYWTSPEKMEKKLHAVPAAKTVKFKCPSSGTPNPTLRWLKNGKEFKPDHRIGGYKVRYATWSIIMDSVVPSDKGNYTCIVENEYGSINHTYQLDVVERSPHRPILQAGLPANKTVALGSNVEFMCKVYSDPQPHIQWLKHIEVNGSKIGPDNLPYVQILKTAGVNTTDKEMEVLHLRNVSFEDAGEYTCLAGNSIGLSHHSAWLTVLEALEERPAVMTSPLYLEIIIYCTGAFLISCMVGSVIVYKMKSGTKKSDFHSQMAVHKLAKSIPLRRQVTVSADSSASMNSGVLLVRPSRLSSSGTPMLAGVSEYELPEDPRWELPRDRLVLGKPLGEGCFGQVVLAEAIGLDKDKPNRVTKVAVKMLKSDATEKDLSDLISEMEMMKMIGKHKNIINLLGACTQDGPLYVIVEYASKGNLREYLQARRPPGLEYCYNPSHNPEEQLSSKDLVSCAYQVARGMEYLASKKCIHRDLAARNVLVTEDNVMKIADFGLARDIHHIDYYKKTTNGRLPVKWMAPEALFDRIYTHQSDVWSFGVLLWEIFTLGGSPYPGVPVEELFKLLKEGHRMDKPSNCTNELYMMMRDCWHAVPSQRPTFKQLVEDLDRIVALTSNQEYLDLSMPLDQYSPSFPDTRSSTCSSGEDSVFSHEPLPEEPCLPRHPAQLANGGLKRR
# Procedure: as §1, §2
# FGF-R1 assay: FGF-R1 (5-20 mU diluted in 50 mM Tris pH 7.5, 0.1 mM EGTA, 1 mg/ml BSA) was assayed against a substrate peptide (Poly Glut Tyr) in a final volume of 25.5 μl containing 50 mM Tris pH 7.5, 1 mg/ml substrate peptide, 10 mM magnesium acetate and 0.02 mM [33P-g-ATP] (50-1000 cpm/pmole) and incubated for 30 min at room temperature. Assays were stopped by addition of 5 μl of 0.5 M (3%) orthophosphoric acid and then harvested onto P81 Unifilter plates with a wash buffer of 50 mM orthophosphoric acid.
# [1] = 10 micromolar compound, read-out: mean activity remaining (as a percentage of the original activity), RSK1
# [2] = 10 micromolar compound, read-out: mean activity remaining (as a percentage of the original activity), MNK1
# [3] = 0.5 h, 10 micromolar compound, read-out: mean activity remaining (as a percentage of the original activity), CK 1
# [4] = 10 micromolar compound, read-out: mean activity remaining (as a percentage of the original activity), SGK1
# Chain of RSK1 (Q15418 whole entry, species assumed): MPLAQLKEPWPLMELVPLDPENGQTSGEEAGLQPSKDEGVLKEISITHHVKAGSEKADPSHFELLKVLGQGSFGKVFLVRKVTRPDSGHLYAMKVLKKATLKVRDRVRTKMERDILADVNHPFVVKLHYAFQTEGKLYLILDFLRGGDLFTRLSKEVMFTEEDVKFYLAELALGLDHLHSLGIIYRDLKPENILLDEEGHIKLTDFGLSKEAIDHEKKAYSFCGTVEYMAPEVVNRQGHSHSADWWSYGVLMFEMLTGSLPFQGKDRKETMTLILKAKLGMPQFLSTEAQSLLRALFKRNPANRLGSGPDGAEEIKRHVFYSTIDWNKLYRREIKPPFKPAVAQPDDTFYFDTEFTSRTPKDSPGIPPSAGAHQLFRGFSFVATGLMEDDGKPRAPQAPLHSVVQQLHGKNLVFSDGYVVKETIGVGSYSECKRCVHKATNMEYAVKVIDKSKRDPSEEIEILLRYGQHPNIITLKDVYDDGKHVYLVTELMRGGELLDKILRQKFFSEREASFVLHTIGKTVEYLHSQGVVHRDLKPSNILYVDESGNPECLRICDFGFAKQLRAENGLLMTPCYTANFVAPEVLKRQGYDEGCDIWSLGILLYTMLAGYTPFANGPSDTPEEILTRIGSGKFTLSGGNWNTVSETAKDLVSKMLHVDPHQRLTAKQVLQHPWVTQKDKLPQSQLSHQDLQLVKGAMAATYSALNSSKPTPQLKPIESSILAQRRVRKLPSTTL
Compound,remaining activity at 10 µM (RSK1; [1]) [%],remaining activity at 10 µM (MNK1; [2]) [%],remaining activity at 10 µM (CK1; [3]) [%],remaining activity at 10 µM (FGF-R1) [%],remaining activity at 10 µM (SGK1; [4]) [%],also measured
CC(C)c1cnn2c(NCc3ccccc3)cc(NCCCCCCCN)nc12 [BS-181],–,–,–,–,–,"remaining activity at 10 µM (RSK1; RSK1, 10 μM, read-out: Mean Remaining Enzyme Activity (%)): 67%; remaining activity at 10 µM (MNK1; MNK1, 10 μM, read-out: Mean Remaining Enzyme Activity (%)): 105%; remaining activity at 10 µM (CK1; CK1, 10 μM, read-out: Mean Remaining Enzyme Activity (%)): 29%; remaining activity at 10 µM (SGK1; SGK1, 10 μM, read-out: Mean Remaining Enzyme Activity (%)): 42%"
C=C[C@H](CO)Nc1cc(NCc2ccccc2)n2ncc(C(C)C)c2n1 [ICEC0065],79,90,19,87,84,–
CC[C@H](CO)Nc1cc(NCc2ccccc2)n2ncc(C(C)C)c2n1 [ICEC0067],62,86,16,78,89,–
"CC(C)c1cnn2c(NCc3ccccc3)cc(N[C@@H](CO)[C@H](O)CO)nc12 [ICEC0318, (3S)-3-(7-(Benzylamino)-3-isopropylpyrazolo[1,5-a]pyrimidin-5-ylamino)butane-1,2,4-triol]",75,98,–,86,92,"remaining activity at 10 µM (CK1; 0.5 h, read-out: mean activity remaining (as a percentage of the original activity), CK 1): 19%"
CC(C)c1cnn2c(NCc3ccccc3F)cc(NCCCCCN)nc12 [ICEC-0232],–,–,–,–,–,"mean activity remaining (as a percentage of the original activity), RSK1 (RSK1; 10 micromolar compound): 24%; mean activity remaining (as a percentage of the original activity), MNK1 (MNK1; 10 micromolar compound): 97%; mean activity remaining (as a percentage of the original activity), CK 1 (CK1; 10 micromolar compound): 9%; mean activity remaining (as a percentage of the original activity), FGF-R1 (FGF-R1): 82%; mean activity remaining (as a percentage of the original activity), SGK1 (SGK1; 10 micromolar compound): 50%"
